Experimental findings from ChEMBL document CHEMBL5500399, “Design, Synthesis, and Biological Evaluation of 1,2,4-Oxadiazole Derivatives Containing an Aryl Carboxylic Acid Moiety as Potent Sarbecovirus Papain-like Protease Inhibitors” (J Med Chem, 2024) are described below.

Calls of active or inactive are those of the source. No cut-off for these calls is given here.

In assay [1] the target is T1, Replicase polyprotein 1ab (Severe acute respiratory syndrome coronavirus 2, UniProt P0DTD1). In words: Inhibition of SARS-CoV2 PLpro using Z-RLRGG-AMC as substrate preincubated for 10 mins followed by substrate addition and measured after 20 sec shaking for 30 mins by time-resolved fluorescence assay.
Assay [2] addresses T1, Replicase polyprotein 1ab. In words: Binding affinity to SARS-CoV2 PLpro by biolayer interferometry analysis. (In general: In BLI a coated tip is dipped into the sample, and binding shifts an interference pattern.)
In assay [3] the target is Replicase polyprotein 1ab (Severe acute respiratory syndrome coronavirus 2) (UniProt P0DTD1). In words: Binding affinity to SARS-CoV2 PLpro assessed as stabilization by measuring increase melting temperature by thermal shift assay.

Turning to `Cc1ccc(Nc2ccc(C(=O)O)cc2)cc1-c1noc(C(C)c2cccc3ccccc23)n1` (centres undefined), the IC50 (commonly the concentration that gives 50% inhibition) in assay [1] was 10.7 µM.

Take `Cc1ccc(-c2noc(C(C)c3cccc(C(O)c4ccccc4)c3)n2)cc1NCc1ccc(C(=O)O)s1` (centres undefined): half-maximal inhibition in assay [1] (IC50) was put at 11.1 µM.

For the molecule `CONC(=O)c1ccc(-c2ccc(-c3noc(C(C)c4cccc5ccccc45)n3)cc2)cc1` (centres undefined), the half-maximal inhibitory concentration (IC50) in assay [1] turned out to be 0.9 µM.

Turning to `CC(c1ncc(-c2ccc(-c3ccc(C#N)s3)cc2)o1)c1cccc2ccccc12` (centres undefined), the IC50 in assay [1] was 20.8 µM.

As to `Cc1ccc(-c2noc([C@H](C)c3ccc(-c4ccccc4)c(F)c3)n2)cc1NCc1ccc(C(=O)O)s1`, the IC50 in assay [1] was determined as 4 µM.

Regarding `Cc1ccc(-c2noc(C(C)c3ccc(N4Cc5ccccc5C4=O)cc3)n2)cc1NCc1ccc(C(=O)O)s1` (centres undefined), in assay [1], the concentration for half-maximal inhibition (IC50) turned out to be 3.9 µM.

For the molecule `Cc1ccc(NCc2cccc(C(=O)O)c2)cc1-c1noc(C(C)c2cccc3ccccc23)n1` (centres undefined), 11.1 µM corresponded to half-maximal inhibition in assay [1] (IC50).

Consider `Cc1ccc(NC2CCC(C#N)CC2)cc1-c1noc(C(C)c2cccc3ccccc23)n1` (centres undefined), for which the 50% inhibitory concentration (IC50) in assay [1] is more than 200 µM.

The molecule `Cc1ccc(NCc2ccc(C(=O)O)cc2)cc1-c1noc(C(C)c2cccc3ccccc23)n1` (centres undefined) gave an IC50 in assay [1] of 11.2 µM.

With `COc1ccc2cc(C(C)c3nc(-c4ccc(C)c(NCc5ccc(C(=O)O)s5)c4)no3)ccc2c1` (racemic), in assay [1], the IC50 came to 5.9 µM.

`Cc1ccc(N)cc1-c1noc(C(C)c2cccc3ccccc23)n1` (centres undefined) had an IC50 in assay [1] of more than 200 µM.

For `CC(c1nc(-c2ccc(-c3ccc(C#N)s3)cc2)no1)c1cccc2ccccc12` (centres undefined), the IC50 in assay [1] was 0.6 µM.

For the molecule `Cc1ccc(-c2noc(C(O)c3ccccc3)n2)cc1NCc1ccc(C(=O)O)s1` (centres undefined), the IC50 in assay [1] worked out at 435 µM.

In assay [1], `Cc1ccc(NCc2ccc(C#N)cc2)cc1-c1noc(C(C)c2cccc3ccccc23)n1` (centres undefined) showed an IC50 of more than 200 µM.

Turning to `Cc1ccc(-c2noc(C(C)c3cccc(-c4ccccc4)c3)n2)cc1NCc1ccc(C(=O)O)s1` (centres undefined), it took 4.3 µM to reach half-maximal inhibition in assay [1] (IC50).

In assay [1], `CC(c1ncc(-c2ccc(-c3ccc(C(=O)O)s3)cc2)o1)c1cccc2ccccc12` (centres undefined) gave an IC50 of 7.7 µM.

In turn, `CC(c1nc(-c2ccc(NCc3ccc(C(=O)O)cc3)cc2)no1)c1cccc2ccccc12` (centres undefined) had an IC50 in assay [1] of 50.2 µM.

`COc1ccc(-c2noc(C(C)c3cccc4ccccc34)n2)cc1NCc1ccc(C(=O)O)s1` (centres undefined) showed a half-maximal inhibitory concentration (IC50) in assay [1] of 1.3 µM.

Molecule `COC(=O)c1ccc(Nc2ccc(C)c(-c3noc(C(C)c4cccc5ccccc45)n3)c2)cc1` (centres undefined) registered an IC50 in assay [1] of 70.9 µM.

Regarding `Cc1ccc(NC2CCCC(C(=O)O)C2)cc1-c1noc(C(C)c2cccc3ccccc23)n1` (centres undefined), in assay [1], 35.1 µM corresponded to half-maximal inhibition (IC50).

The molecule `CC(c1nc(-c2ccc(N(C)Cc3ccc(C(=O)O)s3)cc2)no1)c1cccc2ccccc12` (centres undefined) returned an IC50 in assay [1] of 4 µM.

`Cc1ccc(NC2CCCCC2)cc1-c1noc(C(C)c2cccc3ccccc23)n1` (centres undefined) gave an IC50 in assay [1] of 101 µM.

`Cc1ccc(-c2noc(C(C)c3ccc4c(c3)[nH]c3ccc(Cl)cc34)n2)cc1NCc1ccc(C(=O)O)s1` (centres undefined): binding in assay [2] was characterised by a dissociation constant (Kd) of 13.6 µM. The molecule also registered an IC50 in assay [1] of 1.9 µM.

Regarding `Cc1ccc(NCc2ccc(S(C)(=O)=O)cc2)cc1-c1noc(C(C)c2cccc3ccccc23)n1` (centres undefined), in assay [1], half-maximal inhibition (IC50) required 59.2 µM.

In turn, `Cc1ccc(NC2CCC(C(=O)O)CC2)cc1-c1noc(C(C)c2cccc3ccccc23)n1` (centres undefined) yielded an IC50 in assay [1] of 22.7 µM.

The molecule `Cc1ccc(NCc2ccc(C(=O)O)o2)cc1-c1noc(C(C)c2cccc3ccccc23)n1` (centres undefined) yielded an IC50 in assay [1] of 14.4 µM.

With `Cc1ccc(-c2noc(-c3ccc(-c4ccccc4)cc3)n2)cc1NCc1ccc(C(=O)O)s1`, the midpoint of inhibition in assay [1], the IC50, lay at 25.5 µM.

`COC(=O)c1ccc(CNc2ccc(C)c(-c3noc(C(C)c4cccc5ccccc45)n3)c2)cc1` (centres undefined) came in with an IC50 in assay [1] of more than 200 µM.

`COC1CCC(Nc2ccc(C)c(-c3noc(C(C)c4cccc5ccccc45)n3)c2)CC1` (centres undefined) showed a 50% inhibitory concentration (IC50) in assay [1] of 114 µM.

In assay [1], `Cc1ccc(-c2noc([C@@H](C)c3ccc(-c4ccccc4)c(F)c3)n2)cc1NCc1ccc(C(=O)O)s1` yielded a concentration for half-maximal inhibition (IC50) of 3.4 µM.

Take `Cc1ccc(NCc2ccc(C(=O)O)s2)cc1-c1noc(C(C)c2cccc3ccccc23)n1` (centres undefined): half-maximal inhibition in assay [1] (IC50) was put at 10.4 µM.

As for `Cc1ccc(-c2noc(-c3ccccc3)n2)cc1NCc1ccc(C(=O)O)s1`, in assay [1], inhibition was half-maximal at 59 µM (IC50).

In assay [1], `Cc1ccc(-c2noc(C(C)c3ccc(CC(C)C)cc3)n2)cc1NCc1ccc(C(=O)O)s1` (centres undefined) gave an IC50 of 3.6 µM.

On to `Cc1ccc(-c2noc(C(C)c3cccc4ccccc34)n2)cc1NCc1ccc(C(=O)O)cc1` (centres undefined), for which half-maximal inhibition in assay [1] (IC50) required 0.2 µM.

In the case of `COc1ccc2cc([C@H](C)c3nc(-c4ccc(C)c(NCc5ccc(C(=O)O)s5)c4)no3)ccc2c1`, in assay [1], the 50% inhibitory concentration (IC50) came out at 5.8 µM.

In turn, `Cc1ccc(NCc2ccc(O)cc2)cc1-c1noc(C(C)c2cccc3ccccc23)n1` (centres undefined) displayed an IC50 in assay [1] of 176 µM.

Consider `COc1ccc2cc([C@@H](C)c3nc(-c4ccc(C)c(NCc5ccc(C(=O)O)s5)c4)no3)ccc2c1`, for which the IC50 in assay [1] is 10.5 µM.

`CC(c1noc(-c2ccc(-c3ccc(C(=O)O)s3)cc2)n1)c1cccc2ccccc12` (centres undefined) yielded an IC50 in assay [1] of 2.1 µM.

The molecule `Cc1ccc(NCC(C)(C)C)cc1-c1noc(C(C)c2cccc3ccccc23)n1` (centres undefined) gave an IC50 in assay [1] of more than 200 µM.

As to `CC(c1nc(-c2ccc(Nc3ccc(C(=O)O)cc3)cc2)no1)c1cccc2ccccc12` (centres undefined), in assay [1], the IC50 was 4.2 µM.

`CC(c1nc(-c2cc(NCc3ccc(C(=O)O)cc3)ccc2Br)no1)c1cccc2ccccc12` (centres undefined) came in with an IC50 in assay [1] of 2.1 µM.

As to `CC(c1nc(-c2cccc(NCc3ccc(C(=O)O)cc3)c2)no1)c1cccc2ccccc12` (centres undefined), the IC50 in assay [1] was found to be 7.5 µM.

Turning to `CC(c1noc(-c2ccc(-c3ccc(C#N)s3)cc2)n1)c1cccc2ccccc12` (centres undefined), the IC50 in assay [1] stood at 31.4 µM.

Take `Cc1ccc(-c2noc(C(C)(C)c3ccc(-c4ccccc4)cc3)n2)cc1NCc1ccc(C(=O)O)s1`: in assay [1], the IC50 is 35.4 µM.

`Cc1ccc(-c2noc(-c3cccc4ccccc34)n2)cc1NCc1ccc(C(=O)O)s1` showed an IC50 in assay [1] of 11.6 µM.

In assay [1], `CC(c1nc(-c2cccc(NCc3ccc(C(=O)O)s3)c2)no1)c1cccc2ccccc12` (centres undefined) showed an IC50 of 7.6 µM.

In the case of `Cc1ccc(-c2noc(Cc3cccc(-c4cccs4)c3)n2)cc1NCc1ccc(C(=O)O)s1`, 6.8 µM corresponded to half-maximal inhibition in assay [1] (IC50).

`Cc1ccc(-c2noc(C(c3ccccc3)c3ccccc3)n2)cc1NCc1ccc(C(=O)O)s1` returned an IC50 in assay [1] of 9 µM. The result in assay [3] was Active.

Take `CC(c1nc(-c2ccc(-c3ccc(C(=O)O)cc3)cc2)no1)c1cccc2ccccc12` (centres undefined): the IC50 in assay [1] amounted to 11.7 µM.

`CC(c1nc(-c2cccc(NCc3ccc(C(=O)O)o3)c2)no1)c1cccc2ccccc12` (centres undefined): in assay [1], the IC50 stood at 96.5 µM.

As for `Cc1ccc(-c2noc(C(C)c3cccc(-c4cccs4)c3)n2)cc1NCc1ccc(C(=O)O)s1` (centres undefined), the IC50 in assay [1] was 4.1 µM. In addition, the result in assay [3] was Active.
